We go through 26 compounds from patent US11497752B2, “Compounds and uses thereof” (Foghorn Therapeutics Inc., priority 2018, dated 2022).

One test concerns the target BRM (Homo sapiens, UniProt P51531). Briefly: ATPase catalytic activity of BRM (ADP-Glo in vitro biochemical assay). The conditions noted are these: for BRM Max % Inhibition: Table 5. In general terms: In ADP-Glo the light output rises with the ADP produced.
Another test addresses BRG-1 (Homo sapiens, UniProt P51532). The experiment in a line: ATPase catalytic activity of BRG-1 (ADP-Glo in vitro biochemical assay). The conditions noted are these: for BRG1 Max % Inhibition: Table 5.

What is called IC50 is the midpoint of a concentration-inhibition curve.

Sequence of BRG-1 (P51532 whole entry): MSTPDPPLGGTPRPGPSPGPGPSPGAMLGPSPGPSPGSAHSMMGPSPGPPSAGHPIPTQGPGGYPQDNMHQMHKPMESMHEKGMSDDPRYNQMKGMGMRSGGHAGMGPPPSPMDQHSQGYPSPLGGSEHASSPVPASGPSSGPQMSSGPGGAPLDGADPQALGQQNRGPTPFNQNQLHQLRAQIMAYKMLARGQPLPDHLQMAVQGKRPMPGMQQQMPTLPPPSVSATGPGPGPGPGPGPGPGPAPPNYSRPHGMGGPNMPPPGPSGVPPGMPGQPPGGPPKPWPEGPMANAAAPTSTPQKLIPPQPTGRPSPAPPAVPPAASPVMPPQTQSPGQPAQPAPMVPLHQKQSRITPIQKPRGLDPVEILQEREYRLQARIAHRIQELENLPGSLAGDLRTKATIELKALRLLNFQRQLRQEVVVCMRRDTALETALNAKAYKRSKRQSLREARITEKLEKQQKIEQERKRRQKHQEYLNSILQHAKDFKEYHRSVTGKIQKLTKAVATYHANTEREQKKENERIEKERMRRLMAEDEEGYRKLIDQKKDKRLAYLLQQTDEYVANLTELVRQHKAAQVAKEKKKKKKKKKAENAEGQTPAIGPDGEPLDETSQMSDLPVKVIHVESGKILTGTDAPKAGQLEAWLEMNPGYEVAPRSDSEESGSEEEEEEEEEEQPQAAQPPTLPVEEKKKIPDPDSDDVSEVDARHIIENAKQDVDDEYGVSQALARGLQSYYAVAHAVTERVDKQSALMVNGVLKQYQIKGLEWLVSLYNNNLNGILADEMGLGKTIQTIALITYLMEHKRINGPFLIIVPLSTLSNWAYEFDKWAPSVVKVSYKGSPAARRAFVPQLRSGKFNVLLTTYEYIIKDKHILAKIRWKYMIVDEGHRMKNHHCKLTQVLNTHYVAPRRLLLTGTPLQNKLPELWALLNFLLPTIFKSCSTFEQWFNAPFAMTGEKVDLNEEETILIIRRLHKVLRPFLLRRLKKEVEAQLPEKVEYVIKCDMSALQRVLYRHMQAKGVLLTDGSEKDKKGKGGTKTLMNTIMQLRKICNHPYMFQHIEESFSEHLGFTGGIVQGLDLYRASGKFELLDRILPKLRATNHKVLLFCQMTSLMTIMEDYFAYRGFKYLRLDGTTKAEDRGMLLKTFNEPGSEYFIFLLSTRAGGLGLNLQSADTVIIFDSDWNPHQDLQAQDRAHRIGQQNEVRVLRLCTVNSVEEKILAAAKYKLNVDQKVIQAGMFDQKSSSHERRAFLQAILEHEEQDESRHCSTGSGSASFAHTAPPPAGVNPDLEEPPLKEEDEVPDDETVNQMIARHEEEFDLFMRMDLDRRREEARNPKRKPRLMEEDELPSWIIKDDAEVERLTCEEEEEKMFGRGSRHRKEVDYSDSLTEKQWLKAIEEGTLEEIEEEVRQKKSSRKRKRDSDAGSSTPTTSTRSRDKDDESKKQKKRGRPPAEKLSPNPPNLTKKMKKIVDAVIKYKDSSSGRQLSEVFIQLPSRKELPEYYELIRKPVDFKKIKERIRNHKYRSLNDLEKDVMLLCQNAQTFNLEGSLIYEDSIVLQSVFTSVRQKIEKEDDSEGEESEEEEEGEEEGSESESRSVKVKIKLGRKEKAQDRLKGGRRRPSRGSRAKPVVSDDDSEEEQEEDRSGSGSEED
Sequence of BRM (P51531 whole entry): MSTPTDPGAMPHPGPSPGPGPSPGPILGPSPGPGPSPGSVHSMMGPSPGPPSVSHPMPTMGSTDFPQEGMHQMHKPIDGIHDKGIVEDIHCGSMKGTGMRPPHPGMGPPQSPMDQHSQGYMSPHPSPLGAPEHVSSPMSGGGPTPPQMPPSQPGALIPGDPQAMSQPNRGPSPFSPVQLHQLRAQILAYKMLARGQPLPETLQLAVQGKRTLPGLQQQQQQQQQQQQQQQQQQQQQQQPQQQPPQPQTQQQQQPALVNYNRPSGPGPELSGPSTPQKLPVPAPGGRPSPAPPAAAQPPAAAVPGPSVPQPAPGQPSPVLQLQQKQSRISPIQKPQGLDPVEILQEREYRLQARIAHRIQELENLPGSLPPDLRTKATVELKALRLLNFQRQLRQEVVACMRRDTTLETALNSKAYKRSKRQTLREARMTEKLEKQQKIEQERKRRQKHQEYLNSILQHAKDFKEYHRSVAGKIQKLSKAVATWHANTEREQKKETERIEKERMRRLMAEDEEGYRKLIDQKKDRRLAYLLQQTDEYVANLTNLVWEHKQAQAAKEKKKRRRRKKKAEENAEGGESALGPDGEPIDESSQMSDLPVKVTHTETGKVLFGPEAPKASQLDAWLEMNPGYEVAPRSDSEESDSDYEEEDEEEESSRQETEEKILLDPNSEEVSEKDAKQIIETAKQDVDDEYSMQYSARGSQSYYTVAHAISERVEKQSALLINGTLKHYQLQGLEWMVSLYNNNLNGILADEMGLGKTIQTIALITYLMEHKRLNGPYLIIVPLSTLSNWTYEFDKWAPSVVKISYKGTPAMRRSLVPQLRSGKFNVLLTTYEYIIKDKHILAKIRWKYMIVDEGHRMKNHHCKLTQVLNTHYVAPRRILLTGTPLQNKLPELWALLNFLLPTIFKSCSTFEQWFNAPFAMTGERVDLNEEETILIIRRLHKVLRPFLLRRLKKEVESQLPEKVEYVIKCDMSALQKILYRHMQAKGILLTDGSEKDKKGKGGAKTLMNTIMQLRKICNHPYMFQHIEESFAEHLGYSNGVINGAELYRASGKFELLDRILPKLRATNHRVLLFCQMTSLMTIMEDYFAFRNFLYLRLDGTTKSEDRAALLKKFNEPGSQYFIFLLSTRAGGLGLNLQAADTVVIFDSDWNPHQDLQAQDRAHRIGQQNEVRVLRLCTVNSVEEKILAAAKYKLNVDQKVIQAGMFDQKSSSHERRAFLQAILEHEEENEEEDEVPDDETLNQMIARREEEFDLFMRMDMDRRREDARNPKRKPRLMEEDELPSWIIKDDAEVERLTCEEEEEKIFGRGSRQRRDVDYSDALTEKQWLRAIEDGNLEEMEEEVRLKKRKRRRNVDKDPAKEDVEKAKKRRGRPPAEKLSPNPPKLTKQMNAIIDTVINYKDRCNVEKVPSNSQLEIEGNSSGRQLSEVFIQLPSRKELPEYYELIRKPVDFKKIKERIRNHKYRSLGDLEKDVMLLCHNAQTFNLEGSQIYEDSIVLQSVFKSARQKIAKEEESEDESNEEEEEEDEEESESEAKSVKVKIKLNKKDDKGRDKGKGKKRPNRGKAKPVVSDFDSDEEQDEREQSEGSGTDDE

Consider `CN(C)S(=O)(=O)c1cccc(C(=O)NCC(=O)Nc2nc(-c3ccc(CN)cc3)cs2)c1` [Compound 22, N-[2-[[4-[4-(aminomethyl)phenyl]thiazol-2-yl]amino]-2-oxo-ethyl]-3-(dimethylsulfamoyl)benzamide], for which, at BRM, the IC50 is greater than 10 µM and the “BRM Max % Inhibition” value was greater than 70%. In addition, at BRG-1, the IC50 was greater than 10 µM and the “BRG1 Max % Inhibition” value was greater than 60%.

With `CS(=O)(=O)c1cccc(C(=O)NCC(=O)Nc2nc(-c3ccccc3)cs2)c1` [Compound 23, 3-methylsulfonyl-N-[2-oxo-2-[(4-phenylthiazol-2-yl)amino]ethyl]benzamide], on BRM, the IC50 was in the range of 1 to 10 µM and the “BRM Max % Inhibition” value was greater than 70%. At BRG-1, the IC50 was 1 to 10 µM and the “BRG1 Max % Inhibition” value is greater than 50%.

With `CSCC[C@H](NC(=O)c1cccc(S(=O)(=O)N(C)C)c1)C(=O)Nc1nc(-c2ccccc2)cs1` [Compound 24, (S)-3-(N,N-dimethylsulfamoyl)-N-(4-(methylthio)-1-oxo-1-((4-phenylthiazol-2-yl)amino)butan-2-yl)benzamide], at BRM, the IC50 lay in the range of 1 to 10 µM and the “BRM Max % Inhibition” value is recorded as greater than 70%. Also, the “BRG1 Max % Inhibition” value at BRG-1 is greater than 99%.

On to `CN(C)S(=O)(=O)c1cccc(C(=O)N[C@@H](CN)C(=O)Nc2nc(-c3ccccc3)cs2)c1` [Compound 25, (S)—N-(3-amino-1-oxo-1-((4-phenylthiazol-2-yl)amino)propan-2-yl)-3-(N,N-dimethylsulfamoyl)benzamide], for which, on BRM, the IC50 is greater than 10 µM and the “BRM Max % Inhibition” value is greater than 70%. Moreover, on BRG-1, the IC50 was greater than 10 µM and the “BRG1 Max % Inhibition” value was greater than 50%.

Consider `CNS(=O)(=O)c1cccc(C(=O)NCC(=O)Nc2nc(-c3ccccc3)cs2)c1` [Compound 26, 3-(methylsulfamoyl)-N-[2-oxo-2-[(4-phenylthiazol-2-yl)amino]ethyl]benzamide], for which, on BRM, the IC50 was greater than 10 µM and the “BRM Max % Inhibition” value is reported as greater than 60%. At BRG-1, the IC50 is greater than 10 µM and the “BRG1 Max % Inhibition” value is recorded as less than 30%.

For the compound `CN(C)S(=O)(=O)c1cccc(C(=O)NCC(=O)Nc2nc(-c3ccccc3C#N)cs2)c1` [Compound 27, N-(2-((4-(2-cyanophenyl)thiazol-2-yl)amino)-2-oxoethyl)-3-(N,N-dimethylsulfamoyl)benzamide], at BRM, the half-inhibitory concentration (IC50) is greater than 10 µM and the “BRM Max % Inhibition” value is greater than 60%. Moreover, at BRG-1, the IC50 was greater than 10 µM and the “BRG1 Max % Inhibition” value was greater than 30%.

For the compound `NS(=O)(=O)c1cccc(C(=O)NCC(=O)Nc2nc(-c3ccccc3)cs2)c1` [Compound 28, N-(2-oxo-2-((4-phenylthiazol-2-yl)amino)ethyl)-3-sulfamoylbenzamide], at BRM, the IC50 lay within 1 to 10 µM and the “BRM Max % Inhibition” value is listed as greater than 50%. Besides, at BRG-1, the IC50 was in the range of 1 to 10 µM and the “BRG1 Max % Inhibition” value is recorded as greater than 30%.

For `Cc1cccc(C)c1-c1csc(NC(=O)CNC(=O)c2cccc(S(=O)(=O)N(C)C)c2)n1` [Compound 29, N-[2-[[4-(2,6-dimethylphenyl)thiazol-2-yl]amino]-2-oxo-ethyl]-3-(dimethylsulfamoyl)benzamide], on BRM, the IC50 was greater than 10 µM and the “BRM Max % Inhibition” value was greater than 50%. On BRG-1, the IC50 was greater than 10 µM and the “BRG1 Max % Inhibition” value is on record as greater than 60%.

`Cc1ccc(-c2csc(NC(=O)CNC(=O)c3cccc(S(=O)(=O)N(C)C)c3)n2)cc1` [Compound 31, 3-(dimethylsulfamoyl)-N-[2-oxo-2-[[4-(p-tolyl)thiazol-2-yl]amino]ethyl]benzamide]: at BRM, the IC50 fell in the range of 1 to 10 µM and the “BRM Max % Inhibition” value is greater than 30%. For the same compound, at BRG-1, the IC50 lay within 1 to 10 µM and the “BRG1 Max % Inhibition” value is recorded as less than 30%.

Turning to `CN(C)S(=O)(=O)c1cccc(C(=O)NCC(=O)Nc2nc(-c3ccccn3)cs2)c1` [Compound 32, 3-(dimethylsulfamoyl)-N-[2-oxo-2-[[4-(2-pyridyl)thiazol-2-yl]amino]ethyl]benzamide], on BRM, the IC50 is greater than 10 µM and the “BRM Max % Inhibition” value is recorded as greater than 30%. For the same compound, on BRG-1, the IC50 is greater than 10 µM and the “BRG1 Max % Inhibition” value is listed as less than 30%.

Take `CN(C)S(=O)(=O)c1cccc(C(=O)NCC(=O)Nc2nc(-c3cccc(C(=O)O)c3)cs2)c1` [Compound 33, 3-[2-[[2-[[3-(dimethylsulfamoyl)benzoyl]amino]acetyl]amino]thiazol-4-yl]benzoic acid]: on BRM, the IC50 was greater than 10 µM and the “BRM Max % Inhibition” value was greater than 80%. At BRG-1, the IC50 is greater than 10 µM and the “BRG1 Max % Inhibition” value is given as greater than 80%.

For `CN(C)S(=O)(=O)c1cccc(C(=O)NCC(=O)Nc2nc(C3CCCCC3)cs2)c1` [Compound 34, N-[2-[(4-cyclohexylthiazol-2-yl)amino]-2-oxo-ethyl]-3-(dimethylsulfamoyl)benzamide], on BRM, the IC50 is greater than 10 µM and the “BRM Max % Inhibition” value was greater than 90%. Also, on BRG-1, the IC50 is greater than 10 µM and the “BRG1 Max % Inhibition” value was greater than 60%.

For `CC(C)c1csc(NC(=O)CNC(=O)c2cccc(S(=O)(=O)N(C)C)c2)n1` [Compound 35, 3-(dimethylsulfamoyl)-N-[2-[(4-isopropylthiazol-2-yl)amino]-2-oxoethyl]benzamide], on BRM, the half-maximal inhibitory concentration (IC50) was greater than 10 µM and the “BRM Max % Inhibition” value is recorded as greater than 95%. In addition, on BRG-1, the IC50 was greater than 10 µM and the “BRG1 Max % Inhibition” value was greater than 90%.

Take `CS(=O)(=O)c1cccc(C(=O)NCC(=O)Nc2nc(-c3cccc(-c4ccccc4)c3)cs2)c1` [Compound 36, 3-methylsulfonyl-N-[2-oxo-2-[[4-(3-phenylphenyl)thiazol-2-yl]amino]ethyl]benzamide]: at BRM, the IC50 is less than 1 µM and the “BRM Max % Inhibition” value is reported as greater than 95%. Besides, on BRG-1, the IC50 is 1 to 10 µM and the “BRG1 Max % Inhibition” value is given as greater than 90%.

Consider `CN(C)C(=O)c1cccc(-c2csc(NC(=O)CNC(=O)c3cccc(S(=O)(=O)N(C)C)c3)n2)c1` [Compound 37, 3-[2-[[2-[[3-(dimethylsulfamoyl)benzoyl]amino]acetyl]amino]thiazol-4-yl]-N,N-dimethyl-benzamide], for which, at BRM, the IC50 was greater than 10 µM and the “BRM Max % Inhibition” value is on record as greater than 50%. On BRG-1, the IC50 was greater than 10 µM and the “BRG1 Max % Inhibition” value is listed as greater than 30%.

`CSCC[C@H](NC(=O)c1ccc(NS(C)(=O)=O)cc1)C(=O)Nc1nc(-c2ccccc2)cs1` [Compound 38, 4-(methanesulfonamido)-N-[(1S)-3-methylsulfanyl-1-[(4-phenylthiazol-2-yl)carbamoyl]propyl]benzamide]: on BRM, the IC50 is greater than 10 µM and the “BRM Max % Inhibition” value is recorded as greater than 80%. On BRG-1, the IC50 was greater than 10 µM and the “BRG1 Max % Inhibition” value is on record as greater than 80%.

Regarding `O=C(CNC(=O)c1cccc(S(=O)(=O)C2CC2)c1)Nc1nc(-c2ccccc2)cs1` [Compound 39, 3-cyclopropylsulfonyl-N-[2-oxo-2-[(4-phenylthiazol-2-yl)amino]ethyl]benzamide], at BRM, the IC50 is greater than 10 µM and the “BRM Max % Inhibition” value is on record as greater than 30%. For the same compound, on BRG-1, the IC50 was greater than 10 µM and the “BRG1 Max % Inhibition” value is recorded as less than 30%.

In the case of `CN(C)S(=O)(=O)c1cccc(C(=O)NCC(=O)Nc2cccc(-c3ccccc3)c2)c1` [Compound 40, 3-(dimethylsulfamoyl)-N-[2-oxo-2-(3-phenylanilino)ethyl]benzamide], on BRM, the “BRM Max % Inhibition” value is greater than 50%. Moreover, the “BRG1 Max % Inhibition” value on BRG-1 is on record as less than 30%.

On to `CC(C)CC[C@H](NC(=O)c1ccccc1)C(=O)Nc1nc(-c2ccccc2)cs1` [Compound 46, N-[(1S)-4-methyl-1-[(4-phenylthiazol-2-yl)carbamoyl]pentyl]benzamide], for which the IC50 at BRM and against BRG-1 was 1 to 10 µM in each case.

With `O=C(N[C@@H](CCc1ccccc1)C(=O)Nc1nc(-c2ccccc2)cs1)c1ccccc1` [Compound 49, N-[(1S)-3-phenyl-1-[(4-phenylthiazol-2-yl)carbamoyl]propyl]benzamide], the IC50 against BRM and against BRG-1 was 1 to 10 µM throughout.

On to `CCC[C@H](NC(=O)c1ccccc1)C(=O)Nc1nc(-c2ccccc2)cs1` [Compound 51, N-[(1S)-1-[(4-phenylthiazol-2-yl)carbamoyl]butyl]benzamide], for which the IC50 against BRM is 1 to 10 µM; against BRG-1, greater than 10 µM.

`CSCC[C@H](NC(=O)c1ccc(O)cc1)C(=O)Nc1nc(-c2ccccc2)cs1` [Compound 53, 4-hydroxy-N-[(1S)-3-methylsulfanyl-1-[(4-phenylthiazol-2-yl)carbamoyl]propyl]benzamide]: the IC50 against BRM and against BRG-1 was 1 to 10 µM each time.

Take `CSCC[C@H](NC(=O)c1cccc(C(C)(C)O)c1)C(=O)Nc1nc(-c2ccccc2)cs1` [Compound 55, (S)-3-(2-hydroxypropan-2-yl)-N-(4-(methylthio)-1-oxo-1-((4-phenylthiazol-2-yl)amino)butan-2-yl)benzamide]: on BRM, the IC50 lay within 1 to 10 µM and the “BRM Max % Inhibition” value was greater than 90%. For the same compound, at BRG-1, the IC50 was 1 to 10 µM and the “BRG1 Max % Inhibition” value was greater than 80%.

With `CSCC[C@H](NC(=O)c1ccc(CN)cc1)C(=O)Nc1nc(-c2ccccc2)cs1` [Compound 57, 4-(aminomethyl)-N-[3-methylsulfanyl-1-[(4-phenylthiazol-2-yl)carbamoyl]propyl]benzamide], at BRM, the IC50 was greater than 10 µM and the “BRM Max % Inhibition” value is greater than 90%. Further, at BRG-1, the IC50 is greater than 10 µM and the “BRG1 Max % Inhibition” value is given as greater than 90%.

Regarding `CSCC[C@H](NC(=O)c1cccc(O)c1)C(=O)Nc1nc(-c2ccccc2)cs1` [Compound 59, (S)-3-hydroxy-N-(4-(methylthio)-1-oxo-1-((4-phenylthiazol-2-yl)amino)butan-2-yl)benzamide], on BRM, the IC50 was greater than 10 µM and the “BRM Max % Inhibition” value is listed as greater than 90%. Also, at BRG-1, the IC50 was greater than 10 µM and the “BRG1 Max % Inhibition” value is listed as greater than 90%.

As for `CSCC[C@H](NC(=O)c1ccc(CN(C)C)cc1)C(=O)Nc1nc(-c2ccccc2)cs1` [Compound 60, 4-[(dimethylamino)methyl]-N-[(1S)-3-methylsulfanyl-1-[(4-phenylthiazol-2-yl)carbamoyl]propyl]benzamide], at BRM, the IC50 is greater than 10 µM and the “BRM Max % Inhibition” value was greater than 90%. For the same compound, at BRG-1, the IC50 was greater than 10 µM and the “BRG1 Max % Inhibition” value is listed as greater than 80%.
